# Where two headings read alike, the source gives them in different places.
# What was measured:
# [1] = under normal conditions; cited from earlier work
# [2] = cited from earlier work
# [3] = nitrite 30 mM, 10 mM hydrochloric acid, hydroquinone 30 mM (FIG. 1); followed by a further slow increase
# Protocol: The pH was measured prior to addition of hydroquinone and then at time-points indicated following addition of hydroquinone.
# The concentration of nitrosothiol concentration can be estimated from the absorbance reading using the molar absorption coefficient for nitrosothiols=approximately 10,000 M^−1 cm^−1.
structure (smiles),measurement,setting,value
"[N]=O [NO, nitric oxide]",Maximum solubility in water,[1],approximately 1.7 mM
"O=NO [Nitrite, nitrite]",pKa,[2]; at 25° C.,about 3.4
same,pKa,[2],3.4
O=C(O)O [bicarbonic acid],pKa,[2],6.3
"Oc1ccc(O)cc1 [hydroquinone, Hydroquinone]",pH after rapid increase in the presence of hydroquinone,[3],about 5.0
